What was measured:
[1] = tested on: PKC activity of rat PC-12 cells; assay: Intracellular PKC assay in PC-12 cells; assay type: cell-based
Method: According to the method described in a publication [Kanno T et al., J Lipid Res 47 (6):1146-1156, 2006], the PKC activity of rat PC-12 cells was assayed. The cells were treated with each DCP-LA optical isomer at 37° C. for 10 min. The treatment was performed in an extracellular solution [137 mM NaCl, 5.4 mM KCl, 10 mM MgCl2, 5 mM ethyleneglycol-bis(2-aminoethylether)-N,N,N′,N′-tetraacetic acid (EGTA), 0.3 mM Na2HPO4, 0.4 mM K2HPO4 and 20 mM 4-(2-hydroxyethyl)-1-piperazin-ethanesulfonic acid, pH 7.2]. Then, the cells were rinsed with 100 μl of phosphate-buffered saline (PBS) in the absence of Ca^2+, and incubated in an extracellular solution (50 μl) containing 50 μg/ml digitonin, 25 mM glycerol 2-phosphate, 200 μM ATP and 100 μM synthetic PKC substrate peptide (Pyr-Lys-Arg-Pro-Ser-Gln-Arg-Ser-Lys-Tyr-Leu (SEQ ID NO: 1); MW, 1,374; Pyr: […]) at 37° C. for 15 min. […] A substrate peptide peak and a new resultant product peak were detected at the absorbance of 214 nm (SPD-10Avp UV-VIS detector, Shimadzu Co., Kyoto, Japan). […] The molecular weight was calculated from the two standard spectra of bradykinin (MW 1060.2) and substance P (MW 1672.9).
The areas of the non-phosphorylated and phosphorylated substrate peptides were measured (total area corresponds to the concentration of PKC substrate peptide used). […]

[2] = target: T1, PKC-ε (Homo sapiens, UniProt Q02156); assay: PKC assay in cell-free system with PKC isozymes; assay type: biochemical
T1 sequence (Q02156 1-737): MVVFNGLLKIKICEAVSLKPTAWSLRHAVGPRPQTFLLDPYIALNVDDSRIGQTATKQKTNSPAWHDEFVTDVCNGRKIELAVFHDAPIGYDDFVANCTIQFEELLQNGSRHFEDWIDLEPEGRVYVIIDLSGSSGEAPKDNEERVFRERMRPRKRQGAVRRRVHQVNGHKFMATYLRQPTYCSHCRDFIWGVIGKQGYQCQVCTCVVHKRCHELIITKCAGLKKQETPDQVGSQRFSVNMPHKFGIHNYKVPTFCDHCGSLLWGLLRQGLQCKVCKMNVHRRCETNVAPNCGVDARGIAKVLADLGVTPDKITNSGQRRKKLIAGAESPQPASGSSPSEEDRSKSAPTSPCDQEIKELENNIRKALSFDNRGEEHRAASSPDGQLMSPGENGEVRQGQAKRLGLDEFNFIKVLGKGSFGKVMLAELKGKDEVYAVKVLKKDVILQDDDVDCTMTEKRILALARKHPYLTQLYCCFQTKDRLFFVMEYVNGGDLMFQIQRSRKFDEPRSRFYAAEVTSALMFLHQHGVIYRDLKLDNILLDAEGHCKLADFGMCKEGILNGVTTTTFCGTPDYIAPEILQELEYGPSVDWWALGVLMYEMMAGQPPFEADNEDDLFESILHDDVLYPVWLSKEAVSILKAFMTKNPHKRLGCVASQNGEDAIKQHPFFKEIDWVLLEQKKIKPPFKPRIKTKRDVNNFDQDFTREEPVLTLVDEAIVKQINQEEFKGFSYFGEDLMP
Method: The PKC activity in a cell-free system was quantified by the method described in a publication [Kanno T et al., J Lipid Res 47 (6):1146-1156, 2006]. The summary is as described below.
Synthetic PKC substrate peptide (10 μM) was reacted with various PKC isozymes in a medium containing 20 mM Tris-HCl (pH 7.5), 5 mM Mg-acetate, 10 μM ATP and each DCP-LA optical isomer (10 μM) in the absence of phosphatidylserine and diacylglycerol at 30° C. for 5 min. When the activity with new types of PKC (PKC-δ, -ε, -η and -μ) was to be measured, a medium free of Ca^2+ was used and when the activity with other PKC isozyme was to be measured, a medium containing 100 μM Ca^2+ was used. After loading on reversed-phase HPLC (LC-10ATvp, Shimadzu Co., Kyoto, Japan), a substrate peptide peak and a new resultant product peak were detected at the absorbance of 214 nm. The areas of the non-phosphorylated and phosphorylated substrate peptides m were measured (total area corresponds to the concentration of PKC substrate peptide used), and the amount of phosphorylated substrate peptide was calculated. The phosphorylated substrate peptide level (pmol/l min) was used as an index of PKC activity.

[3] = tested on: glutamic acid release from the hippocampus; assay: Glutamic acid release from rat hippocampus sections (HPLC); assay type: cell-based
[4] = tested on: serotonin release from the hypothalamus; assay: Serotonin release from rat hypothalamus sections (HPLC); assay type: cell-based

CCCCC[C@@H]1C[C@@H]1C[C@@H]1C[C@H]1CCCCCCCC(=O)O [α,β-DCP-LA, 8-[(1R,2S)-2-{(1R,2R)-2-pentylcyclopropylmethyl}-cyclopropyl]octanoic acid]
PKC activation action on PC-12 cells compared to the other optical isomers ([1]; 100 nM, 37° C., 10 min, FIG. 1): most strongly | concentration at which the PKC activation action reaches maximum (bell-shaped) ([1]; PC-12 cells, FIG. 2): about 100 nM | activation of PKC isozymes in cell-free system (selectivity) ([2]; 10 μM, absence of phosphatidylserine and diacylglycerol, FIG. 4): selective and direct activation of PKC-ε | PKC-ε activation action compared to the other optical isomers ([2]; cell-free system, 10 μM, FIG. 6): highest ability | concentration at which the PKC activation action reaches maximum (bell-shaped) ([2]; cell-free system, FIG. 5): about 25 μM | glutamic acid release stimulation action compared to the other optical isomers ([3]; 100 nM, in the presence of nicotine (1 μM), FIG. 7): remarkably high | concentration at which glutamic acid release stimulation action reaches maximum (bell-shaped) ([3]; rat hippocampus sections, FIG. 8): about 100 nM | glutamic acid release, substance alone vs non-treated group ([3]; treated alone, FIG. 9): did not show a remarkable difference | effect on glutamic acid release caused by nicotine ([3]; with nicotine (1 μM), FIG. 9): remarkably enhanced | serotonin release stimulation action compared to the other optical isomers ([4]; 100 nM, in the presence of nicotine (1 μM), FIG. 13): remarkably high | concentration at which serotonin release stimulation action reaches maximum (bell-shaped) ([4]; rat hypothalamus sections, FIG. 14): about 100 nM | serotonin release, substance alone vs non-treated group ([4]; treated alone, FIG. 15): did not show a remarkable difference | effect on serotonin release caused by nicotine ([4]; with nicotine (1 μM), FIG. 15): remarkably enhanced
